Assay results as given in patent US20070254894A1, “Novel small molecules with selective cytotoxicity against human microvascular endothelial cell proliferation” (priority 2006, published 2007).
Like-named read-outs stand apart in the source and are kept apart here.

What was measured:
[1] = test system: HMVEC cells stimulated with VEGF 165; assay: VEGF driven HMVEC proliferation screen; type: cell-based
Description: (§1) HMVEC cells were plated on collagen-coated plates at 2500 cells/well for 24 hours. Various concentrations of test compounds were then added to duplicate plates. […] Anti-FGF antibody (final concentration of 5 μg/mL) was added to four control wells as a standard inhibitor. At the same time the compounds were added, a T-zero plate was generated (Alamar blue was added to a plate and read after three hours). The plates with the compounds were incubated for one hour at 37° C., 5% carbon dioxide. At this point, b-FGF was added (final concentration of 2.5 ng/mL). Tween-20 (10 μL) was added to four additional control wells to represent total death and the plates were returned to the carbon dioxide incubator for 6 days.
The assay was run identically using VEGF in place of b-FGF. The final concentration of VEGF 165, in this mode, was 10 ng/mL. The control inhibitor was anti-VEGF antibody (final concentration of […]). All other conditions were the same.

[2] = test system: HMVEC cells stimulated with b-FGF; assay: b-FGF driven HMVEC proliferation screen; type: cell-based
Description: as §1

in vitro = conditions: human, primary human dermal fibroblasts, D. Fibroblast LC50, 6 days, Alamar blue
Description: (§2) In parallel with the VEGF and FGF screens, a normal cell toxicity assay was run. Primary Human Dermal Fibroblasts (Clonetics) were plated at 5000 cells/well. After 24 hours various concentrations of test compounds, were added in duplicate plates and 10% Tween-20 was added to four control wells to represent total death. At the same time a T-zero plate was generated. The plates were returned to the carbon dioxide incubator and on day 6 Alamar blue was added and the plates read after 3 hours.
(§3) Using a T-zero plate allows the observation of compounds that cause the cells to become static as well as inhibit growth.

[3] = test system: retinal neovascularization; assay: Mouse model of oxygen induced retinopathy (OIR), intravitreal administration; type: in vivo, C57BL/6 mouse; conditions: for amount of neovascularization: intravitreal once on day 12, 30 mg/ml, eyes examined day 17, versus controls; for pupils of treated animals: for the duration of the study
Description: Seven day old neonatal C57BL/6 mouse pups and their nursing dam were placed in an isobaric chamber that maintains a 75% oxygen level. The pups were returned to a normoxic environment at 12 days of age. The test articles and vehicle controls were administered intravitreally (once on day 12). Approximately one half of the pups from each litter were injected, the remaining pups were used as controls. Pups were euthanized on day 17 and their left/treated eye is processed for histological sectioning. […] The degree of neovascularization was measured by examining serial sections of the eye taken at 100 micron intervals. The numbers of endothelial nuclei that were internal but contiguous to the inner limiting membrane were counted. The number of nuclei from test article treated animals was compared with those counted in control animals. [table]

[4] = test system: Primary Human Dermal Fibroblasts; assay: in vitro; conditions: read-out: D. Fibroblast LC50; 6 days, Alamar blue
Description: as §2, §3

| Structure (SMILES) | CC50 ([1]; Homo sapiens, HMVEC, 144 h, VEGF 165 10 ng/mL, 6 days, Alamar blue, read-out: VEGF LC50) [nM] | CC50 ([2]; Homo sapiens, HMVEC, 144 h, b-FGF 2.5 ng/mL, 6 days, Alamar blue, read-out: b-FGF LC50) [nM] | CC50 at 6 days (in vitro) [nM] | amount of neovascularization [3] | pupils of treated animals ([3]; intravitreal) | CC50 [1] [nM] | CC50 [2] [nM] | CC50 [4] [nM] | effect on neovascularization, Compound 9 compared with Compound 98 ([3]; intravitreal, 30 mg/ml, FIG. 1 and FIG. 2) |
| --- | --- | --- | --- | --- | --- | --- | --- | --- | --- |
| CN1CCN(c2ccc(NC(=O)c3ccccn3)c3ncccc23)CC1 [Compound 98] | 33 | 36 | > 10000 | a decrease in the amount of neovascularization | markedly dilated |  |  |  |  |
| O=C(Nc1ccc(N2CCOCC2)c2cccnc12)c1ccccn1 [Compound 9] |  |  |  | a decrease in the amount of neovascularization | markedly dilated | 35 | 37 | > 10000 | A greater effect |
